pIC50, pKi: −log10 of the molar value. Blank lines part the entries; values can stand above or below the molecule they belong to.
Tests used:
[1] = target: T1, Alpha-glucosidase (Geobacillus stearothermophilus) (UniProt P94451); assay: Inhibition of Bacillus stearothermophilus glucosidase (of family 13 alpha-glucosidase) at 1 umol/mL
T1 sequence (whole entry): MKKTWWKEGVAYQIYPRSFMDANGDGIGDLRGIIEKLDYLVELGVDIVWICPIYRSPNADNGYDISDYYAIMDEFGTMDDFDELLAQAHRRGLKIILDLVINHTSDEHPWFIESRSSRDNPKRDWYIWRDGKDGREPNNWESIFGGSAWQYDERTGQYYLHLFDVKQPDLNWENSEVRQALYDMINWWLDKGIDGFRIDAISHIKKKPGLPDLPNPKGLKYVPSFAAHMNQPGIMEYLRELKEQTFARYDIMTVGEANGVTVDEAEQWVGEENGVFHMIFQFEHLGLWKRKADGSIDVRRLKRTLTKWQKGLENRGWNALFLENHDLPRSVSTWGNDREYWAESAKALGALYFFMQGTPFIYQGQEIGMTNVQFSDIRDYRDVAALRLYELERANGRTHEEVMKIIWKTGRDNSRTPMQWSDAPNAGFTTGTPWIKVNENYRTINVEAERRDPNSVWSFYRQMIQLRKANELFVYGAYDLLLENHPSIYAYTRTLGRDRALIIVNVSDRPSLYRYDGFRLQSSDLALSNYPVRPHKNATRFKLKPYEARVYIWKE

[2] = Inhibitory concentration for Saccharomyces cerevisiae glucosidase (of family 13 alpha-glucosidase) at 1 umol/mL
[3] = target: T2, Alpha-glucosidase (Apis mellifera) (UniProt Q17058); assay: Inhibition of family 13 alpha-glucosidase isoform II from honey bee; settings: concentration not given here
T2 sequence (whole entry): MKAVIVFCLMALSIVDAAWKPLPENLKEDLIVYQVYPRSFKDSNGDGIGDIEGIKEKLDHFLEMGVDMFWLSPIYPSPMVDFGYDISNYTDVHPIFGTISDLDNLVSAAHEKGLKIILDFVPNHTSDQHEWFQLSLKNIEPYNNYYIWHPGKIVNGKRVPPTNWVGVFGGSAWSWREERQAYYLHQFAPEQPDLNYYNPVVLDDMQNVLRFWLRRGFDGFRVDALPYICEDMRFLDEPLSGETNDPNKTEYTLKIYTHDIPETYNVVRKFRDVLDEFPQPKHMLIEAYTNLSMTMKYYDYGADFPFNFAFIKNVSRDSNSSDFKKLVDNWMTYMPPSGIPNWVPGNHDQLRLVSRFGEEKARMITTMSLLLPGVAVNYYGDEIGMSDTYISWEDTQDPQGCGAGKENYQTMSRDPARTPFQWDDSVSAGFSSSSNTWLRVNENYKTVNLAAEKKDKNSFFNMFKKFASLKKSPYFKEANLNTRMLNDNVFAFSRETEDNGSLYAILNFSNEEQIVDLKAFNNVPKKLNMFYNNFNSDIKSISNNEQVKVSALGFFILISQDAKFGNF

[4] = target: T3, Mannosyl-oligosaccharide glucosidase (Homo sapiens) (UniProt Q13724); assay: Inhibition of Glucosidase 1(of Endoplasmic reticulum processing alpha-glucosidase) at 2 umol/mL
T3 sequence (whole entry): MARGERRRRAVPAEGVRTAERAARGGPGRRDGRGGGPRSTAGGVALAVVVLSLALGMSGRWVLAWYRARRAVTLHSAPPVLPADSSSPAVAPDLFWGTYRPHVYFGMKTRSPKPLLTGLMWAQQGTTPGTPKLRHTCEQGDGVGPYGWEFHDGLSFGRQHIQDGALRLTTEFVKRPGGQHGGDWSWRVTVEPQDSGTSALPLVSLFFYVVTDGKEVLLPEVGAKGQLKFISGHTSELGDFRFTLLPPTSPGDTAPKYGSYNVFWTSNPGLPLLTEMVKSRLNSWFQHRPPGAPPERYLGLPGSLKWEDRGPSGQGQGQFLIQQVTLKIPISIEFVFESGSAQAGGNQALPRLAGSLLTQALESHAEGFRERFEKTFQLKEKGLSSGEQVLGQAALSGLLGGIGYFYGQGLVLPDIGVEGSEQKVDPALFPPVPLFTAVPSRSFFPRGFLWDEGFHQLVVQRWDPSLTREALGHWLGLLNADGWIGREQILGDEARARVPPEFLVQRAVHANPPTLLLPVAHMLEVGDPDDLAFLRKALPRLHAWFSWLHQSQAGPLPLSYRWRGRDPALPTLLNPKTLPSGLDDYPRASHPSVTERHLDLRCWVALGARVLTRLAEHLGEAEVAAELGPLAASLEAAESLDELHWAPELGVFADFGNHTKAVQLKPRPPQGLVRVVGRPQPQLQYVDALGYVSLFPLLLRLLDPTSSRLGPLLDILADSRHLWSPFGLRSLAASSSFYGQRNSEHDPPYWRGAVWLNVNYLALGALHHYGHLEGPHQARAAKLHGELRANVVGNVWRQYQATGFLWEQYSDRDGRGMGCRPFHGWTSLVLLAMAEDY

[5] = Competitive Inhibition constant for Saccharomyces cerevisiae glucosidase
Homo sapiens = species on record: Homo sapiens; assay: Inhibition of Glucosidase 2 at 12 umol/mL
[6] = target: T2, Alpha-glucosidase (Apis mellifera); assay: Inhibition of family 13 alpha-glucosidase isoform I from honey bee; settings: concentration not given here
[7] = Competitive Inhibition constant for Bacillus stearothermophilus glucosidase; parameters: species or system Geobacillus stearothermophilus

SMILES: CC(C)(C)C(=O)NCC1OC(CO)C(O)C(O)C1O (configuration not stated)
inhibition [1]: < 1%

SMILES: CC(=O)NCC1OC(CO)C(O)C(O)C1O (configuration not stated)
inhibition [1]: < 1%

SMILES: O=C(NCC1OC(CO)C(O)C(O)C1O)c1ccccc1 (configuration not stated)
pIC50 [2]: 3.35
inhibition [3]: 12.3%
inhibition [4]: 18.2%
inhibition [1]: < 1%
pKi [5]: 3.30

SMILES: O=C(CCCO)NCC1OC(CO)C(O)C(O)C1O (configuration not stated)
inhibition [6]: < 1%
inhibition [1]: < 1%

More lines, now with the values ahead:

inhibition [1]: < 1%
SMILES: O=C(CO)NCC1OC(CO)C(O)C(O)C1O (configuration not stated)

inhibition (Homo sapiens): < 1%
inhibition [1]: < 1%
SMILES: O=C(CCO)NCC1OC(CO)C(O)C(O)C1O (configuration not stated)

pIC50 [2]: 4.26
inhibition [1]: 100%
pKi [5]: 3.89
pKi [7]: 3.24
SMILES: O=C(CCCCO)NCC1OC(CO)C(O)C(O)C1O (configuration not stated)

inhibition [1]: < 1%
SMILES: O=C(CCCCCO)NCC1OC(CO)C(O)C(O)C1O (configuration not stated)

Reference: ChEMBL document CHEMBL1142021, “Aglycon specificity profiling of alpha-glucosidases using synthetic probes” (Bioorg Med Chem Lett, 2005)
